Reference: patent publication US5162203A, “Methods of measuring isozymes and isozyme classes of alcohol dehydrogenase” (President and Fellows of Harvard College, priority 1989, dated 1992)

Columns and labels:
β1 γ1 ADH (Class I) = target: T1, β1 γ1 ADH (Class I) (Homo sapiens, UniProt P00325+P00326); experiment: Kinetics of enzymatic reduction of methoxynaphthaldehydes by β1γ1 ADH; assay type: biochemical; conditions: rate relative to ethanol oxidation at pH 10.0
T1 construct: beta1 (ADH1B*1) and gamma1 (ADH1C*1) alleles

human ADH isozymes = experiment: Kinetics of enzymatic reduction of methoxynaphthaldehydes by ADH isozymes (general); assay type: biochemical
Method: (§1) Aldehyde reduction was monitored by following the decrease of absorption at 340 nm in 40 mM Mes buffer, pH 7.1. in the presence of saturating NADH, 50 μM for Class I and 100 μM for Class II. […] Initial reaction rates were measured and kinetic parameters determined by conventional procedures as described by Segel, 1975, Enzyme Kinetics, pp. 591-597, Wiley, N.Y.
All reaction mixtures (3 ml total volume) were prepared directly in 1 cm pathlength, 4 ml fluorometric cuvettes by adding 150 μl of the 300 μM substrate solution (e.g substrate IA or IIA) 100 μl of the 1 mM NADH solution (prepared as in part 5 above) and 2.69 ml of assay buffer (0.1M phosphate, pH 7.6). […]
(§2) The linear increase of fluorescence was then recorded for 1-10 minutes, until 0.03-1 μM of substrate was consumed. […] The added product fluorescence intensity was then measured Fluorescence measurements were optimized for samples with low activity (<1 nM/minute). […] Rates measured in the presence of the 0.2 mM ADH inhibitors. […]
The rates of aldehyde reduction, determined as initial velocities (V) and expressed in units of nM/minute, were calculated according to: [formula] where the quantity in parentheses is the slope of the linear fluorescence increase calculated from the quantities Ft and FO, the fluorescence at time t and at the beginning of the reaction, respectively. […]

[1] = Stability of substrates and product solutions; assay type: physicochemical; conditions: for stability in stock solution: 20° C., 30 days, water:acetonitrile (70:30 v/v)
Method: The dilute solutions (300 μM) were prepared by diluting 1 ml of the stock solution to 10 ml with water.
Concentrations were determined spectrophotometrically using a molar absorptivity of 5700 M^-1 cm^-1 at 296 nm for IB and 1270 M^-1 cm^-1 at 330 nm for IIB.

αβ1 ADH (Class I) = target: T2, αβ1 ADH (Class I) (Homo sapiens, UniProt P00325+P07327); experiment: Kinetics of enzymatic reduction of methoxynaphthaldehydes by αβ1 ADH; assay type: biochemical; conditions: rate relative to ethanol oxidation at pH 10.0
T2 construct: beta1 allele (ADH1B*1, Arg47 and Arg369 in mature count)
Method: (§3) Standard assays for ethanol oxidation activity (Dalziel, 1957, Acta Chem Scand 11:1706-23) were carried out on a Cary 219 spectrophotometer interfaced with an Apple IIe microcomputer, using software provided by Varian Associates. The reaction mixture contained 2.5 mM NAD^+ in 0.1M glycine-NaOH buffer. pH 10.0, and 33 mM or 0.2M ethanol for Class I and Class II ADH, respectively.
as §1, with “N.Y. […]” for “N.Y.”
as §2
Additionally the reaction rates for these isozymes were compared to those measured by the standard assay for ethanol oxidation (see part 7 above) at pH 10.0 the optimum for oxidation of ethanol by ADH. […]

β1 β1 ADH (Class I) [2] = experiment: Kinetics of enzymatic reduction of methoxynaphthaldehydes by β1β1 ADH; assay type: biochemical, human; conditions: pH 7.0, 50 μM NADH; spectrophotometric
Horse ADH = experiment: Kinetics of enzymatic reduction of methoxynaphthaldehydes by horse ADH; assay type: biochemical; conditions: for Km / kcat: pH 7.0, 50 μM NADH, spectrophotometric, >90% EE isozyme; for v/v (EtOH): rate relative to ethanol oxidation at pH 10.0
Excerpt: Crystalline horse ADH was purchased from Boehringer-Mannheim (Indianapolis,Ind.). NAD^+ and NADH, both grade III, were obtained as preweighed samples from Sigma Chemical Co. (St. Louis, Mo.); isobutyramide was from Aldrich., ethanol (100%) was from U.S. Industrial Chemicals Co. (New York, N.Y.); Mes acid (2-(N-morpholino)ethanesulfonic acid) was recrystallized from water. All other reagents were of analytical grade. Deionized, glass-distilled water was used throughout.
as §3
as §1, with “N.Y. […]” for “N.Y.”
(§4) Additionally the reaction rates for these isozymes were compared to those measured by the standard assay for ethanol oxidation (see part 7 above) at pH 10.0 the optimum for oxidation of ethanol by ADH. The rate of IA reduction for all Class I isozymes except the β1 β1 form is 1.5- to 4-fold faster than that of ethanol oxidation as measured by the conventional ethanol oxidation assay. […] Table III illustrates that IIA is an excellent substrate for Class II (.eta.) ADH, with a rate of IIA reduction at least 8-fold faster than that of ethanol oxidation.

[3] = Spectral parameters for absorption and fluorescence of ADH substrates and products; assay type: physicochemical; conditions: for total decrease of molar absorptivity (aldehyde/NADH system): 340 nm, 40 mM Mes buffer, pH 7.1, with NADH
Method: The spectral parameters for 4-methoxy-1-naphthaldehyde (IA), 6-methoxy-2-naphthaldehyde (IIA) and their reduction products (IB and IIB, respectively) are shown in Table I.
Ultraviolet absorption spectra were measured on a Cary 219 or Hewlett-Packard 8451 spectrophotometer. Fluorescence measurements were made in a Perkin Elmer MPF3 spectrofluorometer, equipped with an Osram XBO 150 Watt Xenon lamp, an R446 photomultiplier, and thermostatted cell holder through which water was passed from a Poly-Temp circulator with the following spectrometer settings: excitation wavelength 316 nm. bandwidth 8 nm for both substrate IA and IIA; emission wavelength. 370 nm for substrate IA and 360 nm for substrate IIA, emission bandwidth 24 nm. Changes in fluorescence as a result of oxidation or reduction of the substrate was then measured in the ratio mode. Generally, for fluorometric reactions (see part 8 below). a sensitivity setting of 3 was used with compensation of fluorescence background by the zero suppression control of the instrument.
as §1

β1 β1 ADH (Class I) [4] = experiment: Kinetics of enzymatic reduction of methoxynaphthaldehydes by β1β1 ADH; assay type: biochemical, human; conditions: for Km / kcat: Table IV; for v/v (EtOH): rate relative to ethanol oxidation at pH 10.0
Method: as §3, §1
All reaction mixtures (3 ml total volume) were prepared directly in 1 cm pathlength, 4 ml fluorometric cuvettes by adding 150 μl of the 300 μM substrate solution (e.g substrate IA or IIA) 100 μl of the 1 mM NADH solution (prepared as in part 5 above) and 2.69 ml of assay buffer (0.1M phosphate, pH 7.6). After thermal equilibration (25° C.) for 5 minutes, 60 μl of isozyme sample (either serum or purified ADH isozymes) was added to the cuvette.
The linear increase of fluorescence was then recorded for 1-10 minutes, until 0.03-1 μM of substrate was consumed. Larger substrate consumption was not found to be desirable (described in subpart (c) below). After this period the instrument sensitivity setting was reduced 10-30 fold, the signal compensated once again by zero suppression (see part 6 above), and 60 μl of 200-400 μM product (e.g., product IB or IIB) was added to provide an internal standard. The added product fluorescence intensity was then measured Fluorescence measurements were optimized for samples with low activity (<1 nM/minute). For samples with higher activity, repeat measurements were made with the serum volume reduced from 60 μl to 10 μl. Rates measured in the presence of the 0.2 mM ADH inhibitors. 4-MeP or 4-PeP, were made by adding 50 μl of 12 mM inhibitor to the cuvette prior to the assay buffer, and the reaction was carried out as above.
The rates of aldehyde reduction, determined as initial velocities (V) and expressed in units of nM/minute, were calculated according to: [formula] where the quantity in parentheses is the slope of the linear fluorescence increase calculated from the quantities Ft and FO, the fluorescence at time t and at the beginning of the reaction, respectively. Cst is the concentration of the product used as a standard added to the cuvette after the initial rate had been measured and Fst is the fluorescence intensity of the added product
as §4

T2 sequence (P07327 2-375): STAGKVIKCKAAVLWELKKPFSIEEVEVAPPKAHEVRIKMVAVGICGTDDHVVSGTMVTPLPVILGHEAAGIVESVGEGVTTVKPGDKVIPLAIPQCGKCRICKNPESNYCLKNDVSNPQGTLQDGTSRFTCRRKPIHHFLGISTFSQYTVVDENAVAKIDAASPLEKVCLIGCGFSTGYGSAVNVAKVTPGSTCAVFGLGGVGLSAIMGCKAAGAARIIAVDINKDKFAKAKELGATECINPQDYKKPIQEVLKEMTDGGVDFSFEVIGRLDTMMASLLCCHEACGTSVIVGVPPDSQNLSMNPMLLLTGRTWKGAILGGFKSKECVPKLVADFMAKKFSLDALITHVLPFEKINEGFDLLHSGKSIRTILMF
T2 sequence (P00325 2-375): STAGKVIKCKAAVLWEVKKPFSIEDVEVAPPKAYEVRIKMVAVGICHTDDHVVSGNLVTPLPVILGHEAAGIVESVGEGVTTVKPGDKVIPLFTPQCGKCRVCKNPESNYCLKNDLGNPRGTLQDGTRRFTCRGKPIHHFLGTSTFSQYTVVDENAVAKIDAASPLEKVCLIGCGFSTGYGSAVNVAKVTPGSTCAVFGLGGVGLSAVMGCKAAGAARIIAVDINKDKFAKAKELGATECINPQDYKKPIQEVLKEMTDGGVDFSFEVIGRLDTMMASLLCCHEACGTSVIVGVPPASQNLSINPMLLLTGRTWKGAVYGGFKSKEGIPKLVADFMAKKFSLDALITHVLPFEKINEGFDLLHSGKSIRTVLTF
T1 sequence (P00325 whole entry): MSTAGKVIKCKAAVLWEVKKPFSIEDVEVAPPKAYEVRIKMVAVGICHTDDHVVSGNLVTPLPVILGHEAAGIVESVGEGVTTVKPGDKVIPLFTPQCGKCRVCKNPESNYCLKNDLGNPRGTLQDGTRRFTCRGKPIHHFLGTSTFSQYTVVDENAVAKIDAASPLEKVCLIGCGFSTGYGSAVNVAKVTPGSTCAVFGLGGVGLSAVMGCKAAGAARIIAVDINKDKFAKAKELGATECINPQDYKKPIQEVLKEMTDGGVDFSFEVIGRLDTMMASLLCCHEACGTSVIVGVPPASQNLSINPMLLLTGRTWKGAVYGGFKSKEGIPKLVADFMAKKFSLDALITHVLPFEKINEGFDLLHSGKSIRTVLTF
T1 sequence (P00326 whole entry): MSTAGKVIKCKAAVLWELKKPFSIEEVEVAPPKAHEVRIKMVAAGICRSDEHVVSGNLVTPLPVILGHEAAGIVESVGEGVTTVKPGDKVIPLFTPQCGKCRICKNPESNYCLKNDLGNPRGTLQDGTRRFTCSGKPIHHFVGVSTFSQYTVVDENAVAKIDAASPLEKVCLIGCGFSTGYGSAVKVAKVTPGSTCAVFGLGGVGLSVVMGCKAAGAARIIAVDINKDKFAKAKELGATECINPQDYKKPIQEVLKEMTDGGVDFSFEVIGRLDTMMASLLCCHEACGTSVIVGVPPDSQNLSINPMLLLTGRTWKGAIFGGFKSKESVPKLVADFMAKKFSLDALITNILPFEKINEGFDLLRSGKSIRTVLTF

SMILES	v/v (EtOH) (β1 γ1 ADH (Class I))	Km of most, in particular γ-containing Class I isozymes (human ADH isozymes)	stability in stock solution [1]	stability in crystalline state [1]	stability of dilute aqueous solutions [1]	v/v (EtOH) (αβ1 ADH (Class I))	Km (β1 β1 ADH (Class I) [2]) [µM]	kcat (β1 β1 ADH (Class I) [2]) [s⁻¹]	Km (Horse ADH) [µM]	kcat (Horse ADH) [s⁻¹]	v/v (EtOH) (Horse ADH)	total decrease of molar absorptivity (aldehyde/NADH system) [3] [M⁻¹ cm⁻¹]	Absorption εmax ([3]; Mes buffer (45 mM), pH 7.0)	Absorption λmax ([3]; Mes buffer (45 mM), pH 7.0) [nm]	Fluorescence .phi. (quantum yield) ([3]; Mes buffer (45 mM), pH 7.0)	Fluorescence λmax ([3]; Mes buffer (45 mM), pH 7.0) [nm]	Km (β1 β1 ADH (Class I) [4]) [µM]	kcat (β1 β1 ADH (Class I) [4]) [s⁻¹]	v/v (EtOH) (β1 β1 ADH (Class I) [4])	also measured
COc1ccc2cc(C=O)ccc2c1 [IIA, 6-methoxy-2-naphthaldehyde]	0.53	close to or below 1	spectral changes were not observed	stable	much less stable	0.74	5.4	1.28	2.2	35.83	2.5	12700	14,400 M^-1 cm^-1	315	0.22	450	5.4	1.28	4.85	Fluorescence .phi. (quantum yield) ([3]; in methanol): 0.03; Fluorescence λmax ([3]; in methanol): 435 nm
COc1ccc(C=O)c2ccccc12 [IA, 4-methoxy-1-naphthaldehyde]	0.93	close to or below 1	spectral changes were not observed	stable	much less stable	1.59	4	0.033	33	0.433	0.04	18000	13,100 M^-1 cm^-1	332	0.003	420	4	0.033	0.08	rate of reduction of IA versus IIA by Class I ββ isozymes (β1 β1 ADH (Class I) [4]; words): much faster
